Consider eight molecules from patent US20230278987A1, “Antimicrobial Compounds and Methods” (Curza Global, LLC, priority 2019, published 2023).

One test relates to S.aureus (Sa). Briefly: Broth microdilution MIC against S.aureus (Sa). The test is classed as cell-based. To be noted: Staphylococcus aureus, read-out: Sa + bicarb 25 (MIC). How it is done: (§1) A certified BSL-2 laboratory was used for testing. Compounds were evaluated using the broth microdilution minimum inhibitory concentration (MIC) and minimum bactericidal concentration (MBC) assays defined by Clinical and Laboratory Standards Institute (CLSI) in the M26-A guideline against S.aureus (Sa), E.coli (Ec), K.pneumoniae (Kp), A.baumannii (Ab), E.faecalis (Ef) and P.aeruginosa (Pa).
(§2) MICs were determined using the Clinical Laboratory and Standards Institute (CLSI) Broth Microdilution Method with slight modification. Clinical and Laboratory Standards Institute (2012). “Methods for dilution antimicrobial susceptibility tests for bacteria that grow aerobically; approved standard, 9th ed. M07-A9. Clinical and Laboratory Standards Institute, Wayne, PA.” Serial two-fold dilutions of compounds are prepared in sterile clear roundbottom 96-well plates.
(§3) To prepare microdilution trays, two-fold dilutions of antimicrobial agent are prepared in growth medium: Cation-Adjusted Mueller-Hinton Broth (CAMHB), or CAMHB supplemented with sodium bicarbonate (6.25 or 25 mM final concentration prepared from a 1.0 M stock solution) or CAMHB supplemented with heat inactivated human serum (Fisher Cat. # BP2657100) 0-50% by adding 200 µL of the highest concentration to be tested (64 µg/mL, for example) in row A, mixing and transferring 100 µL from row A to 100 µL growth medium in row B, then repeating the mixing and transferring through row H of the 96-well plate, discarding the excess 100 µL remaining. This slight modification to the CLSI protocol enables evaluation of MICs for 3 compounds per plate in triplicate, albeit with only 8 compound dilutions (CLSI protocol enables 2 compounds in triplicate with 10 dilutions). Bacterial suspensions are added to a final concentration of 5 × 10^4 CFU/well by adding 5 µL of a 1:10 dilution of a 0.5 McFarland suspension (1 × 10^8 CFU/mL) for each bacterium evaluated. Bacterial suspensions were prepared using the growth method described by CLSI. Well-isolated colonies (3-5 from an agar plate) were selected using a sterile loop and used to inoculate a tube containing 4 mL of CAMHB. The cultures are incubated at 35 ± 2° C. until it achieves or exceeds the turbidity of the 0.5 McFarland standard, determined by measuring A600nm (usually two to six hours). When growth exceeds a 0.5 McFarland standard, the turbidity is adjusted with broth to be equivalent to a 0.5 McFarland standard.

The subject of the next test is A.baumannii (Ab). The test can be described thus: Broth microdilution MIC against A.baumannii (Ab). It counts as cell-based. The conditions noted are these: CAMHB supplemented with sodium bicarbonate 25 mM; for MIC: Acinetobacter baumannii, read-out: Ab +bicarb 25 (MIC). The procedure:
as §1, §2, §3
A general note: Broth dilution looks for growth in wells or tubes with falling amounts of substance.

Test [1] concerns E.coli S30 extract (bacterial protein synthesis). The test can be described thus: E.coli S30 extract: inhibition of bacterial protein synthesis (luciferase). The conditions noted are these: 37° C. for 1 hour. The test is classed as biochemical. The procedure: E.coli S30 extract: Inhibition of bacterial protein synthesis was determined using the E.coli S30 Extract System for Circular DNA (Promega catalog #L-2010) and Luciferase Assay Reagent (Promega catalog #E1500) with slight modifications to a published protocol. Fyfe, C., Sutcliffe, J.A. and Grossman, T.H. (2012) “Development and characterization of a Pseudomonas aeruginosa in vitro coupled transcription-translation assay system for evaluation of translation inhibitors” J. Microbiol. Methods 90(3), 256-261.
Compounds were serial diluted in 0.5 mL microcentrifuge tubes by mixing and transferring 50 µL from the highest concentration to 50 µL of water, mixing and transferring 50 µL of this 2-fold dilution to 50 µL of water. This mixing and transferring was repeated so that there are a total of 8 tubes with serial dilutions of compound at 10× the desired screening concentration that are ultimately diluted to 1× by the addition of S30 luciferase synthesis mixture. Serial dilutions of compounds were added (2 µL) to wells in a black round bottom 96-well plate. Water (2 µL) was used as a “no inhibitor” control in 4 wells/plate. No DNA control reaction mixture (20 µL; see below) was used as a control in 4 wells/plate for background luminescence. S30 luciferase synthesis mixture (18 µL; see below) was added to wells with compounds or water mixture and incubated at 37° C. for 1 hour. Reactions were stopped by transferring to 4° C. refrigerator for 5 minutes then 25 µL of luciferase activity mix was added. Luminescence was measured using a BioTek Synergy HTX plate reader. % Inhibition was determined relative to no inhibitor controls.
S30 luciferase synthesis mixture: • 445 µL S30 extract, circular • 712 µL S30 Premix without amino acids • 4.45 µL pBESTluc™ DNA (1 µg/ µL) • 78 µL complete amino acid mixture • 267 µL water
No DNA control: • 20 µL S30 extract, circular • 32 µL S30 Premix without amino acids • 7 µL complete amino acid mixture • 21 µL water

Another test relates to E.coli (Ec). Briefly: Broth microdilution MIC against E.coli (Ec). The conditions noted are these: for MIC: Escherichia coli. The test is classed as cell-based. The procedure:
as §1, §2, §3

The next test concerns E.faecalis (Ef). Briefly: Broth microdilution MIC against E.faecalis (Ef). The test is classed as cell-based. The conditions noted are these: Enterococcus faecalis, read-out: Ef +bicarb 25 (MIC). How it is done: as §1, §2, §3
Test [2] concerns the target Rabbit Reticulocyte Lysate (eukaryotic protein synthesis). Briefly: Rabbit Reticulocyte Lysate: inhibition of eukaryotic protein synthesis (luciferase). It counts as biochemical. To be noted: 30° C. for 90 minutes, read-out: retic. IC50. The procedure:
Inhibition of eukaryotic protein synthesis was determined using the Rabbit Reticulocyte Lysate System, Nuclease-Treated from Promega (catalog #L-4960) with slight modifications to the manufacturer’s protocol. Compounds were serial diluted in 0.5 mL microcentrifuge tubes by mixing and transferring 50 µL from the highest concentration to 50 µL of water, mixing and transferring 50 µL of this 2-fold dilution to 50 µL of water. This mixing and transferring was repeated so that there are a total of 8 tubes with serial dilutions of compound at 10× the desired screening concentration that are ultimately diluted to 1× by the addition of rabbit reticulocyte luciferase synthesis mixture. Serial dilutions of compounds were added (2.5 µL) to wells in a black round bottom 96-well plate. Water (2.5 µL) was used as a “no inhibitor” control in 4 wells/plate. No RNA control reaction mixture (2 µL; see below) was used as a control in 4 wells/plate for background luminescence. Rabbit reticulocyte luciferase synthesis mixture (22.5 µL; see below) was added to wells with compounds or water mixture and incubated at 30° C. for 90 minutes. Luciferase assay reagent (25 µL) was added with luminescence measured using a BioTek Synergy HTX plate reader. % Inhibition was determined relative to no inhibitor controls.
Rabbit reticulocyte luciferase synthesis mixture: • 1,000 µL rabbit reticulocyte lysate • 5.7 µL Luciferase Control RNA (1 µg/ µL) • 26 µL complete amino acid mixture • 395 µL water
No RNA Control • 70 µL rabbit reticulocyte lysate • 2 µL complete amino acid mixture • 28 µL water

Another test concerns P.aeruginosa (Pa). The test can be described thus: Broth microdilution MIC against P.aeruginosa (Pa). To be noted: CAMHB supplemented with sodium bicarbonate 25 mM; for MIC: Pseudomonas aeruginosa, read-out: Pa +bicarb 25 (MIC). It counts as cell-based. The procedure:
as §1, §2, §3

Where [3] appears, read: CAMHB supplemented with sodium bicarbonate 25 mM.
The mark [4] stands for this setting: CAMHB supplemented with sodium bicarbonate 25 mM, read-out: E.coli + bicarb 25 (MIC).

≈ marks a conversion by molar mass, not a printed value. Counter-ions that a name gives are not always drawn. Like-named read-outs stand apart in the source and are kept apart here. Where only a bound is given, the exact number is not on record here.

Broadly, the MIC is the lowest concentration found to suppress growth. The term IC50 denotes the concentration that gives 50% inhibition. For `CC(C)(N)C(=O)N1CCN(C(=O)Nc2ccn(-c3ccc4c(c3)CCC(N[C@H]3CC[C@H](N)C3)C4)c(=O)n2)CC1` (stereo in doubt) [Compound 10], the MIC is less than 8 µg/mL in the test with S.aureus (Sa) (setting [3]); greater than 32 µg/mL with A.baumannii (Ab); less than 8 µg/mL in the test with E.coli (Ec) (setting [4]); less than 8 µg/mL in the test on E.faecalis (Ef) (setting [3]); greater than 32 µg/mL in the test with P.aeruginosa (Pa). In addition, the figures for the IC50 in test [1] and in test [2] were less than 500 nM and no less than 1000 nM, respectively.
Regarding `CC(C)(N)C(=O)N1CCN(C(=O)Nc2ccn(-c3ccc4c(c3)CCC(N[C@H]3CC[C@@H](N)CC3)C4)c(=O)n2)CC1` (stereo partly drawn) [Compound 6], the MIC is less than 8 µg/mL in the test with S.aureus (Sa) (setting [3]); greater than 32 µg/mL in the test with A.baumannii (Ab); less than 8 µg/mL in the test on E.coli (Ec) (setting [4]); less than 8 µg/mL in the test on E.faecalis (Ef) (setting [3]); greater than 32 µg/mL in the test on P.aeruginosa (Pa). In addition, the IC50 in test [1] is less than 500 nM; in test [2] it was no less than 1000 nM.
As for `CC(C)(N)C(=O)N1CCN(C(=O)Nc2ccn(-c3ccc4c(c3)CCC(N[C@H]3CC[C@H](N)CC3)C4)c(=O)n2)CC1` (stereo partly drawn) [Compound 7], the MIC in the test on S.aureus (Sa) (setting [3]) was less than 8 µg/mL; in the test on A.baumannii (Ab), greater than 32 µg/mL; in the test on E.coli (Ec) (setting [4]) it was less than 8 µg/mL; in the test on E.faecalis (Ef) (setting [3]), less than 8 µg/mL; in the test with P.aeruginosa (Pa), greater than 32 µg/mL. Besides, the values for the IC50 in test [1] and in test [2] were less than 500 nM and no less than 1000 nM, respectively.
Consider `CC(C)(N)C(=O)N1CCN(C(=O)Nc2ccn(-c3ccc4c(c3)CCC(NC3CC5(CC(N)C5)C3)C4)c(=O)n2)CC1` (stereo not drawn) [Compound 8], for which the MIC was less than 8 µg/mL with S.aureus (Sa) (setting [3]); 8 to 32 µg/mL (≈ 14.2 to 56.9 µM) in the test with A.baumannii (Ab); less than 8 µg/mL in the test on E.coli (Ec) (setting [4]); less than 8 µg/mL in the test on E.faecalis (Ef) (setting [3]); 8 to 32 µg/mL (≈ 14.2 to 56.9 µM) in the test with P.aeruginosa (Pa). Moreover, the IC50 in test [1] was less than 500 nM; in test [2], no less than 1000 nM.
Turning to `CC(C)(N)C(=O)N1CCN(C(=O)Nc2ccn(-c3ccc4c(c3)CCC(N[C@H]3CC[C@H](N)C3)C4)c(=O)n2)CC1` (stereo partly drawn) [Compound 9, 4-(2-amino-2-methylpropanoyl)-N-(1-(6-(((1S,3S)-3-aminocyclopentyl)amino)-5,6,7,8-tetrahydronaphthalen-2-yl)-2-oxo-1,2-dihydropyrimidin-4-yl)piperazine-1-carboxamide hydrochloride salt], the MIC in the test with S.aureus (Sa), in the test with E.coli (Ec) (read-out: E. coli + bicarb 6.25 (MIC)) and in the test on E.faecalis (Ef) was less than 8 µg/mL each time. Further, in the test on A.baumannii (Ab), the “Ab +bicarb 25 (MIC)” value was “+ (An MIC value (µg/mL) that is 32 µg/mL or greater)”. The IC50 in test [1] is less than 500 nM; in test [2] it was no less than 1000 nM. The “E.coli + bicarb 25 (MIC)” value with E.coli (Ec) (setting [3]) is reported as “+++ (An MIC value (µg/mL) that is less than 8 µg/mL)”. For the same molecule, in the test on P.aeruginosa (Pa), the “Pa +bicarb 25 (MIC)” value is “+ (An MIC value (µg/mL) that is 32 µg/mL or greater)”.
Take `CN(C1CCc2cc(-n3ccc(NC(=O)N4CCN(C(=O)C(C)(C)N)CC4)nc3=O)ccc2C1)C1CC2(CC(N)C2)C1` (stereo not drawn) [Compound 11]: the MIC is less than 8 µg/mL with S.aureus (Sa) (setting [3]); greater than 32 µg/mL with A.baumannii (Ab); less than 8 µg/mL in the test on E.coli (Ec) (setting [4]); less than 8 µg/mL with E.faecalis (Ef) (setting [3]); greater than 32 µg/mL in the test on P.aeruginosa (Pa). Besides, the results for the IC50 in test [1] and in test [2] were 500 to 1000 nM and no less than 1000 nM, respectively.
Turning to `CC(C)(N)C(=O)N1CCN(C(=O)Nc2ccn(-c3ccc4c(c3)OCC(N3C[C@@H]5[C@@H](CN)[C@@H]5C3)C4)c(=O)n2)CC1` (stereo partly drawn) [Compound 12, exo-4-(2-amino-2-methylpropanoyl)-N-(1-(3-(-6-(aminomethyl)-3-azabicyclo[3.1.0]hexan-3-yl)chroman-7-yl)-2-oxo-1,2-dihydropyrimidin-4-yl)piperazine-1-carboxamide hydrochloride salt], the MIC in the test with S.aureus (Sa) (setting [3]) is 8 to 32 µg/mL; with A.baumannii (Ab), greater than 32 µg/mL; in the test on E.coli (Ec) (setting [4]), less than 8 µg/mL; in the test with E.faecalis (Ef) (setting [3]), greater than 32 µg/mL; in the test with P.aeruginosa (Pa), greater than 32 µg/mL. The IC50 in test [1] and in test [2] was no less than 1000 nM each time.
For `CC(C)(N)C(=O)N1CCN(C(=O)Nc2ccn(-c3ccc4c(c3)OCC(N3C[C@@H]5[C@@H](N)[C@@H]5C3)C4)c(=O)n2)CC1` (stereo partly drawn) [Compound 13, Hydrochloride Salt], the MIC in the test with S.aureus (Sa) (setting [3]), in the test on A.baumannii (Ab), in the test with E.coli (Ec) (setting [4]), in the test on E.faecalis (Ef) (setting [3]) and in the test on P.aeruginosa (Pa) was 8 to 32 µg/mL throughout. The IC50 in test [1] and in test [2] was no less than 1000 nM each time.
